# Test results taken from US10053443B2, “2-phenylbenzofuran derivatives, method for preparing the same and use of the same for treating inflammatory disease” (KOREA RESEARCH INSTITUTE OF BIOSCIENCE AND BIOTECHNOLOGY, priority 2014, dated 2018).
# Experiments:
# [1] = test system: Raw 264.7 (ATCC TIB71) cells; assay: Evaluation of cell survival rate of macrophages (MTT); assay type: cell-based, mouse; details: Raw 264.7, 10 μM, 24 hours
# Procedure: Raw 264.7 (ATCC TIB71) cells, the mouse derived macrophages', were inoculated in a 96-well plate containing DMEM (Dulbecco's modified Eagle medium; Welgene, Korea) supplemented with 10% FBS (Fetal Bovine Serum), 2 mM glutamine, penicillin (100 unit/ml), and streptomycin (100 μg/ml) at the density of 1×10^4 cells/well. The cells were cultured in 5% CO2 at 37° C. for 4 hours to attach the cells onto the plate. Next, the cells were treated with each sample at different concentrations, followed by further culture for 24 hours. To investigate the cell survival rate, 5 mg/ml of MTT (3-(4,5-dimethylthiazol-2-yl)-2,5-diphenyltetrazoliumbromide, Amresco, OH, USA) was distributed thereto (10 μl/well), followed by culture for 4 hours. Then, the supernatant was eliminated. Formazan reduced from MTT by mitochondria was dissolved in 100 μl of DMSO and then OD570 was measured. 0.2% DMSO was used for the negative control.
# [2] = test system: interleukin-6 (IL-6) generation; assay: Inhibition of interleukin-6 (IL-6) generation in LPS-treated Raw 264.7 cells (ELISA); assay type: cell-based, mouse; details: Mus musculus, RAW264.7; Raw 264.7, LPS treated; read-out: Grades of IC50 on IL-6 generation
# Procedure: Raw 264.7 cells were distributed by the same manner as described in Experimental Example <2-1>, and IL-6 included in the supernatant treated with each sample at different concentrations was measured by enzyme-linked immunosorbent assay (IL-6 ELISA kit, BD Bioscience, San Diego, Calif.).
# Particularly, 10-fold diluted supernatant was distributed in a 96-well plate on which IL-6 antibody was attached, followed by adhesion for 2 hours. The supernatant remaining after the adhesion was washed with a washing buffer. The detection antibody and HRP were adhered on the washed plate for 1 hour. The remaining antibody was washed. Color development was induced by using TMB substrate. The reaction was terminated with sulfuric acid solution. Then, OD450 was measured. IL-6 in the supernatant was quantified by using the standard curve made with the standard IL-6 included in the kit. IL-6 suppression rate was calculated by measuring the same concentration that could inhibit IL-6 generation up to 50% in the LPS treated group and the results are shown in Table 8.
# [3] = test system: inflammatory cells (eosinophils); assay: Number of inflammatory cells in bronchoalveolar lavage fluid (Diff-Quick); assay type: in vivo, mouse; details: OVA asthma Balb/c mice, 5 or 15 mg/kg PO, FIG. 5
# Procedure: 6 week old Balb/c female mice in the average weight of 20 g were adapted for 1 week. 2 mg of aluminum hydroxide (A8222, Sigma, St. Louis, Mo.) and 20 μg of ovalbumin (A5503, sigma, St. Louis, Mo.) were suspended in phosphate buffer (pH 7.4). Each mouse was administered with 200 μl of the phosphate buffer suspension via intraperitoneal injection for sensitization at 2 weeks intervals. The mouse was forced to inhale 1% ovalbumin (OVA) through ultrasonic atomizer for 30 minutes a day for 3 days after the first intraperitoneal injection of ovalbumin. 24 hours after the antigen administration, airway hyperreactivity was measured. 48 hours later, a lethal dose of pentobarbital (Entobar, Hanlim Pharma. Co., Ltd.) was administered to the mouse. The bronchus was opened and the alveoli were washed with 1.4 ml of saline. Then, the test samples were obtained. The normal control (NC) was not administered with ovalbumin nor inhaled. The asthma induced group (OVA) was administered with ovalbumin and inhaled to induce bronchial asthma. The comparative control was orally administered with dexamethasone (2 mg/kg, PO) one hour before the inhalation (DEX). […]
# After performing the experiment of Experimental Example <3-1> above, the number of inflammatory cells in bronchoalveolar lavage fluid was measured by Diff-Quick staining.
structure (smiles),measurement,setting,value
"COc1cc(CCCO)cc2cc(-c3ccc(C)cc3)oc12 [Example 4, 3-(7-methoxy-2-p-tolylbenzofuran-5-yl)propane-1-ol]","Grades of cell survival rate (%, in 10 μM)",[1],A (A: 90<A≤100)
same,IC50,[2],≤ 10 µM
same,infiltration of inflammatory cells (eosinophils) in bronchoalveolar lavage fluid,[3],efficiently reduce
